One compound from patent publication US20090298108A1, “Method for Identifying PDE11 Modulators” (priority 2005, published 2009) can be followed below.

The assay has as its system PDE11A4/CyaB1-chimera. The experiment in a line: Adenylate cyclase activity assay of PDE11A4/CyaB1-chimera (conversion of [α-32P]-ATP to cAMP). In kind it is biochemical, human.

Molecules are shown by their SMILES. “Also recorded” adds a separate entry of the source.

For the compound `Nc1nc2c(ncn2[C@@H]2O[C@@H]3COP(=O)(O)O[C@H]3[C@H]2O)c(=O)[nH]1` [cGMP], the “% basal value” (1 mM of cyclic nucleotide, relative to basal enzyme activity) stood at 400%. The “Classification as PDE11A4-GAF agonist / antagonist” value (from dose-effect curve, FIG. 5) was “PDE11A4-GAF agonist; also recorded: selectively activates the GAF domain of PDE11 as agonist”.
